Data reported in US20190177279A1, “CARBOXYLIC ACID AROMATIC 1,2-CYCLOPROPYLAMIDES” (Bayer Pharma Aktiengesellschaft, priority 2017, published 2019).

Test system: IL-8 secretion
Assay: Bradykinin B1 receptor agonist-induced secretion of IL-8 in human IMR-90 cells
Type: cell-based
Conditions: 0.1 μM Lys-[Des-Arg9]Bradykinin and 0.1 μM Sar-[D-Phe8]-des-Arg9-Bradykinin, 5 hours
Excerpt: Inhibitory Activity on Bradykinin B1 Receptor Agonist-Induced Secretion of IL-6 and IL-8 in Human IMR-90 Cells
The effect of the compound examples on secretion of the cytokine IL-6 and IL-8 was investigated in the human foetal lung fibroblast IMR-90 cell line. Here the induction of the cytokine secretion was induced by the Bradykinin B1 receptor agonists Lys-[Des-Arg9]Bradykinin (CAS 71800-36-7, Tocris Bioscience) and Sar-[D-Phe8]-des-Arg9-Bradykinin (CAS 126959-88-4, Tocris Bioscience) leading to the activation of the Bradykinin B1-driven signalling pathway. […]
IMR-90 cells were cultured in Eagle's Minimum Essential Medium (EMEM) containing 2 mM L-glutamine, 1 g/L glucose, 1.5 g/L NaHCO3, 1 mM sodium pyruvate and non-essential amino acids (ATCC, 30-2003™) supplemented with 10% FBS (Biochrom, 50615) and 50 U/mL Penicillin, 50 μg/mL Streptomycin (PAA, P11-010). […] The compound examples were serially diluted in 100% DMSO and evaluated at 8 different concentrations within the range of 3 nM and 10 μM and a final DMSO concentration of 0.4%. […] The amount of IL-6 and IL-8 in the supernatant was determined using the Human ProInflammatory Panel II (4-Plex) (MSD, K15025B) according to manufacturer's instruction. […] The cell viability was measured using the CellTiter-Glo Luminescent Assay (Promega, G7571) following the manufacturers protocol. […]

**Q.** O=C(O)c1cc(NC(=O)C2CC2c2ccc(Cl)cc2)cc(F)c1-c1cnn(C2CCC2)c1 (racemic) [Example 2, 5-({[2-(4-chlorophenyl)cyclopropyl]carbonyl}amino)-2-(1-cyclobutyl-1H-pyrazol-4-yl)-3-fluorobenzoic acid] was tested. Which IC50 did it give?
**A.** 185 nM
